In patent US9346799B2, “Useful combinations of monobactam antibiotics with beta-lactamase inhibitors” (Basilea Pharmaceutica AG, priority 2005, dated 2016):

Tests used:
Assay in all cases: MIC by broth microdilution (NCCLS M7-A5)
[1] = test system: Enterobacter cloacae P99
[2] = test system: Acinetobacter sp. J2; settings: Acinetobacter baumannii J2
[3] = test system: Stenotrophomonas malthophilia 1AC736; settings: Stenotrophomonas maltophilia 1AC736
[4] = test system: Serratia marcescens S6
[5] = test system: Klebsiella pneumoniae CF104
[6] = test system: Pseudomonas aeruginosa 1973E
[7] = test system: Pseudomonas aeruginosa MK1184
[8] = + 206 + clavulanate, 4 mg/L each
[9] = + 315 + clavulanate, 4 mg/L each
[10] = + 102 + clavulanate, 4 mg/L each
[11] = + 324 + clavulanate, 4 mg/L each
[12] = MIC of antibiotic 1 with the labelled bridged monobactam of formula II and clavulanate, 4 mg/L each

Structure (SMILES): C[C@H]1[C@H](NC(=O)/C(=N\OCc2cc(=O)c(O)cn2C)c2csc(N)n2)C(=O)N1S(=O)(=O)O [Compound 6, (3S,4S)-3-{(2Z)-2-(2-amino(1,3-thiazol-4-yl))-3-[(5-hydroxy-1-methyl-4-oxo(2-hydropyridyl))methoxy]-3-azaprop-2-enoylamino}-4-methyl-2-oxoazetidinesulfonic acid]
- MIC of antibiotic [1, 8]: 16 µg/mL
- MIC of antibiotic [1, 9]: 4 µg/mL
- MIC of antibiotic [2, 8]: 32 µg/mL
- MIC of antibiotic [2, 9]: >32 µg/mL
- MIC of antibiotic [3, 8]: 4 µg/mL
- MIC of antibiotic [3, 9]: 2 µg/mL
- MIC of antibiotic [4, 8]: 4 µg/mL
- MIC of antibiotic [4, 9]: 4 µg/mL
- MIC of antibiotic [5, 8]: 0.5 µg/mL
- MIC of antibiotic [5, 9]: 0.5 µg/mL
- MIC of antibiotic [6, 8]: >32 µg/mL
- MIC of antibiotic [6, 9]: >32 µg/mL
- MIC of antibiotic [7, 8]: >32 µg/mL
- MIC of antibiotic [7, 9]: >32 µg/mL

Structure (SMILES): CC1C(NC(=O)C(=NOCc2cc(=O)c(O)cn2O)c2cccc(N)n2)C(=O)N1S(=O)(=O)O (stereo not drawn) [Compound 20]
- MIC of antibiotic [1, 10]: 16 µg/mL
- MIC of antibiotic [1, 8]: 16 µg/mL
- MIC of antibiotic ([1]; + 501 4 mg/L): >32 µg/mL
- MIC of antibiotic ([1]; + clavulanate 4 mg/L): >32 µg/mL
- MIC of antibiotic ([1]; antibiotic alone): >32 µg/mL
- MIC of antibiotic [2, 10]: >32 µg/mL
- MIC of antibiotic [2, 8]: >32 µg/mL
- MIC of antibiotic ([2]; + 501 4 mg/L): <0.06 µg/mL
- MIC of antibiotic ([2]; + clavulanate 4 mg/L): >32 µg/mL
- MIC of antibiotic ([2]; antibiotic alone): >32 µg/mL
- MIC of antibiotic [3, 10]: 0.25 µg/mL
- MIC of antibiotic [3, 8]: 0.5 µg/mL
- MIC of antibiotic ([3]; + 501 4 mg/L): 0.25 µg/mL
- MIC of antibiotic ([3]; + clavulanate 4 mg/L): 0.25 µg/mL
- MIC of antibiotic ([3]; antibiotic alone): 4 µg/mL
- MIC of antibiotic [4, 10]: 0.5 µg/mL
- MIC of antibiotic [4, 8]: 0.5 µg/mL
- MIC of antibiotic ([4]; + 501 4 mg/L): 2 µg/mL
- MIC of antibiotic ([4]; + clavulanate 4 mg/L): 2 µg/mL
- MIC of antibiotic ([4]; antibiotic alone): 4 µg/mL
- MIC of antibiotic [5, 10]: 2 µg/mL
- MIC of antibiotic [5, 8]: 4 µg/mL
- MIC of antibiotic ([5]; + 501 4 mg/L): 16 µg/mL
- MIC of antibiotic ([5]; + clavulanate 4 mg/L): 32 µg/mL
- MIC of antibiotic ([5]; antibiotic alone): >32 µg/mL
- MIC of antibiotic [6, 10]: 32 µg/mL
- MIC of antibiotic [6, 8]: 16 µg/mL
- MIC of antibiotic ([6]; + 501 4 mg/L): 16 µg/mL
- MIC of antibiotic ([6]; + clavulanate 4 mg/L): 16 µg/mL
- MIC of antibiotic ([6]; antibiotic alone): 16 µg/mL
- MIC of antibiotic [7, 10]: 8 µg/mL
- MIC of antibiotic [7, 8]: >32 µg/mL
- MIC of antibiotic ([7]; + 501 4 mg/L): >32 µg/mL
- MIC of antibiotic ([7]; + clavulanate 4 mg/L): >32 µg/mL
- MIC of antibiotic ([7]; antibiotic alone): >32 µg/mL

Structure (SMILES): NC(=O)OCC1C(NC(=O)C(=NOCc2cc(=O)c(O)cn2O)c2nc(N)sc2Cl)C(=O)N1OS(=O)(=O)O (stereo not drawn) [Compound 47]
- MIC of antibiotic [1, 10]: 16 µg/mL
- MIC of antibiotic [1, 11]: 32 µg/mL
- MIC of antibiotic ([1]; antibiotic alone): >32 µg/mL
- MIC of antibiotic [2, 10]: >32 µg/mL
- MIC of antibiotic [2, 11]: >32 µg/mL
- MIC of antibiotic ([2]; antibiotic alone): >32 µg/mL
- MIC of antibiotic [3, 10]: 1 µg/mL
- MIC of antibiotic [3, 11]: 1 µg/mL
- MIC of antibiotic ([3]; antibiotic alone): 1 µg/mL
- MIC of antibiotic [4, 10]: 2 µg/mL
- MIC of antibiotic [4, 11]: 2 µg/mL
- MIC of antibiotic ([4]; antibiotic alone): 2 µg/mL
- MIC of antibiotic [5, 10]: 4 µg/mL
- MIC of antibiotic [5, 11]: 2 µg/mL
- MIC of antibiotic ([5]; antibiotic alone): >32 µg/mL
- MIC of antibiotic [6, 10]: 4 µg/mL
- MIC of antibiotic [6, 11]: 8 µg/mL
- MIC of antibiotic ([6]; antibiotic alone): 8 µg/mL
- MIC of antibiotic [7, 10]: 2 µg/mL
- MIC of antibiotic [7, 11]: 4 µg/mL
- MIC of antibiotic ([7]; antibiotic alone): 4 µg/mL

Structure (SMILES): CC1(C)C(NC(=O)C(=NOCc2cc(=O)c(O)cn2O)c2csc(N)n2)C(=O)N1OCC(=O)O (stereo not drawn) [Compound 33]
- MIC of antibiotic [1, 10]: 32 µg/mL
- MIC of antibiotic [1, 11]: 4 µg/mL
- MIC of antibiotic ([1]; antibiotic alone): 16 µg/mL
- MIC of antibiotic [2, 10]: >32 µg/mL
- MIC of antibiotic [2, 11]: 16 µg/mL
- MIC of antibiotic ([2]; antibiotic alone): 8 µg/mL
- MIC of antibiotic [3, 10]: 2 µg/mL
- MIC of antibiotic [3, 11]: 2 µg/mL
- MIC of antibiotic ([3]; antibiotic alone): 2 µg/mL
- MIC of antibiotic [4, 10]: 0.5 µg/mL
- MIC of antibiotic [4, 11]: 0.25 µg/mL
- MIC of antibiotic ([4]; antibiotic alone): 0.25 µg/mL
- MIC of antibiotic [5, 10]: 2 µg/mL
- MIC of antibiotic [5, 11]: 0.5 µg/mL
- MIC of antibiotic ([5]; antibiotic alone): 0.5 µg/mL
- MIC of antibiotic [6, 10]: 32 µg/mL
- MIC of antibiotic [6, 11]: 16 µg/mL
- MIC of antibiotic ([6]; antibiotic alone): 16 µg/mL
- MIC of antibiotic [7, 10]: 32 µg/mL
- MIC of antibiotic [7, 11]: 16 µg/mL
- MIC of antibiotic ([7]; antibiotic alone): 32 µg/mL

Structure (SMILES): C[C@H]1[C@H](NC(=O)/C(=N\OCc2cc(=O)c(O)cn2O)c2csc(N)n2)C(=O)N1OCC(=O)O [Compound 22, 2-((3S,4S)-3-{(2Z)-2-(2-amino(1,3-thiazol-4-yl))-3-[(1,5-dihydroxy-4-oxo(2-hydropyridyl))methoxy]-3-azaprop-2-enoylamino}-4-methyl-2-oxoazetidinyloxy)acetic acid]
- MIC of antibiotic [1, 10]: 8 µg/mL
- MIC of antibiotic ([1]; antibiotic alone): >32 µg/mL
- MIC of antibiotic [2, 10]: 4 µg/mL
- MIC of antibiotic ([2]; antibiotic alone): >32 µg/mL
- MIC of antibiotic [3, 10]: 1 µg/mL
- MIC of antibiotic ([3]; antibiotic alone): 0.5 µg/mL
- MIC of antibiotic [4, 10]: 0.25 µg/mL
- MIC of antibiotic ([4]; antibiotic alone): 0.13 µg/mL
- MIC of antibiotic [5, 10]: 0.25 µg/mL
- MIC of antibiotic ([5]; antibiotic alone): >32 µg/mL
- MIC of antibiotic [6, 10]: 4 µg/mL
- MIC of antibiotic ([6]; antibiotic alone): 4 µg/mL
- MIC of antibiotic [7, 10]: 4 µg/mL
- MIC of antibiotic ([7]; antibiotic alone): 8 µg/mL

Structure (SMILES): C[C@H](ON1C(=O)[C@@H](NC(=O)/C(=N\OCc2cc(=O)c(O)cn2O)c2csc(N)n2)[C@@H]1C)C(=O)O [Compound 23, (2S)-2-((3S,4S)-3-{(2Z)-2-(2-amino(1,3-thiazol-4-yl))-3-[(1,5-dihydroxy-4-oxo(2-hydropyridyl))methoxy]-3-azaprop-2-enoylamino}-4-methyl-2-oxoazetidinyloxy)propanoic acid]
- MIC of antibiotic [1, 10]: 8 µg/mL
- MIC of antibiotic [1, 11]: 4 µg/mL
- MIC of antibiotic ([1]; + 324 + sulbactam, 4 mg/L each): 8 µg/mL
- MIC of antibiotic ([1]; antibiotic alone): >32 µg/mL
- MIC of antibiotic [2, 10]: 8 µg/mL
- MIC of antibiotic [2, 11]: 8 µg/mL
- MIC of antibiotic ([2]; + 324 + sulbactam, 4 mg/L each): 2 µg/mL
- MIC of antibiotic ([2]; antibiotic alone): 16 µg/mL
- MIC of antibiotic ([3]; antibiotic alone): 1 µg/mL
- MIC of antibiotic [4, 10]: 0.25 µg/mL
- MIC of antibiotic [4, 11]: 0.25 µg/mL
- MIC of antibiotic ([4]; + 324 + sulbactam, 4 mg/L each): 0.5 µg/mL
- MIC of antibiotic ([4]; antibiotic alone): 0.25 µg/mL
- MIC of antibiotic [5, 10]: 1 µg/mL
- MIC of antibiotic [5, 11]: 1 µg/mL
- MIC of antibiotic ([5]; + 324 + sulbactam, 4 mg/L each): 2 µg/mL
- MIC of antibiotic ([5]; antibiotic alone): >32 µg/mL
- MIC of antibiotic [6, 10]: 8 µg/mL
- MIC of antibiotic [6, 11]: 16 µg/mL
- MIC of antibiotic ([6]; + 324 + sulbactam, 4 mg/L each): 16 µg/mL
- MIC of antibiotic ([6]; antibiotic alone): 8 µg/mL
- MIC of antibiotic [7, 10]: 8 µg/mL
- MIC of antibiotic [7, 11]: 8 µg/mL
- MIC of antibiotic ([7]; + 324 + sulbactam, 4 mg/L each): 8 µg/mL
- MIC of antibiotic ([7]; antibiotic alone): 8 µg/mL

Structure (SMILES): NC(=O)OCC1C(NC(=O)C(=NOCc2cc(=O)c(O)cn2O)c2csc(N)n2)C(=O)N1OS(=O)(=O)O (stereo not drawn) [Compound 25]
- MIC of antibiotic [1, 10]: 8 µg/mL
- MIC of antibiotic [1, 11]: 4 µg/mL
- MIC of antibiotic ([1]; antibiotic alone): >32 µg/mL
- MIC of antibiotic [2, 10]: 16 µg/mL
- MIC of antibiotic [2, 11]: >32 µg/mL
- MIC of antibiotic ([2]; antibiotic alone): >32 µg/mL
- MIC of antibiotic [3, 10]: 1 µg/mL
- MIC of antibiotic [3, 11]: 1 µg/mL
- MIC of antibiotic ([3]; antibiotic alone): 4 µg/mL
- MIC of antibiotic [4, 10]: 1 µg/mL
- MIC of antibiotic [4, 11]: 1 µg/mL
- MIC of antibiotic ([4]; antibiotic alone): 1 µg/mL
- MIC of antibiotic [5, 10]: 0.5 µg/mL
- MIC of antibiotic [5, 11]: 0.5 µg/mL
- MIC of antibiotic ([5]; antibiotic alone): >32 µg/mL
- MIC of antibiotic [6, 10]: 4 µg/mL
- MIC of antibiotic [6, 11]: 8 µg/mL
- MIC of antibiotic ([6]; antibiotic alone): 16 µg/mL
- MIC of antibiotic [7, 10]: 4 µg/mL
- MIC of antibiotic [7, 11]: 8 µg/mL
- MIC of antibiotic ([7]; antibiotic alone): >32 µg/mL

Structure (SMILES): CC1C(NC(=O)C(=NOCc2cc(=O)c(O)cn2O)c2noc(N)n2)C(=O)N1S(=O)(=O)O (stereo not drawn) [Compound 16]
- MIC of antibiotic [1, 10]: >32 µg/mL
- MIC of antibiotic ([1]; antibiotic alone): >32 µg/mL
- MIC of antibiotic [2, 10]: 16 µg/mL
- MIC of antibiotic ([2]; antibiotic alone): >32 µg/mL
- MIC of antibiotic [3, 10]: 2 µg/mL
- MIC of antibiotic ([3]; antibiotic alone): >32 µg/mL
- MIC of antibiotic [4, 10]: >32 µg/mL
- MIC of antibiotic ([4]; antibiotic alone): >32 µg/mL
- MIC of antibiotic [5, 10]: 32 µg/mL
- MIC of antibiotic ([5]; antibiotic alone): >32 µg/mL
- MIC of antibiotic [6, 10]: 16 µg/mL
- MIC of antibiotic ([6]; antibiotic alone): >32 µg/mL
- MIC of antibiotic [7, 10]: 16 µg/mL
- MIC of antibiotic ([7]; antibiotic alone): >32 µg/mL

Structure (SMILES): Nc1nc(CC(=O)N2CC[C@@H]3[C@H]2C(=O)N3S(=O)(=O)O)cs1 [Compound 401]
- MIC of antibiotic at fixed inhibitor concentration (4 mg/L) [4, 12]: 3.125 µg/mL
- MIC of antibiotic at fixed inhibitor concentration (4 mg/L) [5, 12]: 35 µg/mL
- MIC of antibiotic at fixed inhibitor concentration (4 mg/L) [6, 12]: 3 µg/mL
